# What was measured:
# B16 melanoma cells [1] = assay: Melanin formation prevention test (melanin production and cell proliferation); type: cell-based; conditions: for Degree of cell proliferation: relative to ethanol control
# Experimental: B16 melanoma cells were suspended (10,000 cells/ml) in DMEM (Dulbecco's modified eagle medium) containing 10% FBS (fetal bovine serum) and 8 ml of the suspension was added to a cell culture bottle with a 25 cm^2 bottom surface area, and cultured at 37° C. in the presence of 5% carbon dioxide for 3 days. After 3 days of culture, the old medium was exchanged with 8 ml of fresh medium. 40 micro-liters of a sample solution, in which compounds of the present invention had been dissolved in ethanol to give a final concentration shown in the table, were further added thereto. As the control, ethanol only was added. After the medium change, the cells were further cultured for 3 days under the same conditions. After culture was finished, the medium was removed, and the cells were recovered by treatment with trypsin (DIFCO) and suspended in 4 ml of phosphate buffered saline (PBS) and a predetermined amount ( 1/40) of this suspension was used to measure the number of cells in a Coultar counter (Sysmex Co.) to determine the degree of cell proliferation.
# The degree of cell proliferation was determined according to the following equations:
# Degree of cell proliferation (%)=(number of cells in sample)/(number of cells in control)×100
# The remainder of the cell suspension was centrifuged and then washed with 5% trichloroacetic acid, then with ethanol/ethyl ether (3:1 by volume), and with ethyl ether and the cells were dried, and 2N—NaOH was added thereto to dissolve (melanin in) the cells under heating at 70° C. and measured for its optical density (OD) at 420 nm. Using a calibration curve of synthetic melanin, the amount of melanin/million cells was determined from the OD and the degree of inhibition of melanin production was determined according to the following equation:
# Degree of inhibition of melanin (%)=(amount of melanin in control−amount of melanin in sample)/(amount of melanin in control)×100
# B16 melanoma cells [2] = assay: Combination test with existing tyrosinase inhibitors (method of Test Example 1); type: cell-based; conditions: alone
# Experimental: B16 melanoma cells were suspended (10,000 cells/ml) in DMEM (Dulbecco's modified eagle medium) containing 10% FBS (fetal bovine serum) and 8 ml of the suspension was added to a cell culture bottle with a 25 cm^2 bottom surface area, and cultured at 37° C. in the presence of 5% carbon dioxide for 3 days. After 3 days of culture, the old medium was exchanged with 8 ml of fresh medium. 40 micro-liters of a sample solution, in which compounds of the present invention had been dissolved in ethanol to give a final concentration shown in the table, were further added thereto. As the control, ethanol only was added. After the medium change, the cells were further cultured for 3 days under the same conditions. […] Degree of cell proliferation (%)=(number of cells in sample)/(number of cells in control)×100 […] Using a calibration curve of synthetic melanin, the amount of melanin/million cells was determined from the OD and the degree of inhibition of melanin production was determined according to the following equation: Degree of inhibition of melanin (%)=(amount of melanin in control−amount of melanin in sample)/(amount of melanin in control)×100 […]
# [3] = system: Human-derived normal skin fibroblasts (NB1RGB); assay: Test of cell activating activity (fibroblast proliferation); type: cell-based; conditions: relative to ethanol control (100)
# Experimental: Human-derived normal skin fibroblasts (NB1RGB: Institute of Physical and Chemical Research) were suspended into DMEM containing 10% FBS to give a concentration of 20,000 cells/ml, and 5 ml each of this cellular suspension was introduced into each of 25 cm^2 bottles, cultured at 37° C. in the presence of 5% carbon dioxide for 24 hours. To each bottle, was added 10 micro-liter (0.2%) of the ethanol solution containing the compound to give the final concentration shown in Table 8. The cells were cultured for an additional 3 days. After 3 days the old medium was discarded and 5 ml fresh medium was added, and the sample was further added thereto. After this exchange of the medium, the cells were further cultured for another 3 days. Then cells were removed with trypsin and the number of cells in each bottle was counted with a Coultar counter. Simultaneously, as the control, only ethanol was added and the NB1RGB cells were cultured and the number of cells were counted in the same manner. The number of cells in each bottle to which the sample had been added was determined as a relative value to the number (as 100) of cells in the control after cultured, and the results are shown in Table 8.
# [4] = target: T1, tyrosinase in B16 melanoma cells (Mus musculus, UniProt P11344); assay: Test of tyrosinase inhibition in B16 melanoma cells (crude enzyme solution); type: biochemical; conditions: L-DOPA substrate, 37° C. 3 hours; for Degree of inhibition of tyrosinase in B16 melanoma cells: 25 ppm
# T1 construct: the resulting supernatant was used as a crude enzyme solution; endogenous in cells; host or cells: B16 melanoma cells (Triton X100 lysate, sonicated, 11,000 G supernatant)
# T1 sequence (P11344 19-533): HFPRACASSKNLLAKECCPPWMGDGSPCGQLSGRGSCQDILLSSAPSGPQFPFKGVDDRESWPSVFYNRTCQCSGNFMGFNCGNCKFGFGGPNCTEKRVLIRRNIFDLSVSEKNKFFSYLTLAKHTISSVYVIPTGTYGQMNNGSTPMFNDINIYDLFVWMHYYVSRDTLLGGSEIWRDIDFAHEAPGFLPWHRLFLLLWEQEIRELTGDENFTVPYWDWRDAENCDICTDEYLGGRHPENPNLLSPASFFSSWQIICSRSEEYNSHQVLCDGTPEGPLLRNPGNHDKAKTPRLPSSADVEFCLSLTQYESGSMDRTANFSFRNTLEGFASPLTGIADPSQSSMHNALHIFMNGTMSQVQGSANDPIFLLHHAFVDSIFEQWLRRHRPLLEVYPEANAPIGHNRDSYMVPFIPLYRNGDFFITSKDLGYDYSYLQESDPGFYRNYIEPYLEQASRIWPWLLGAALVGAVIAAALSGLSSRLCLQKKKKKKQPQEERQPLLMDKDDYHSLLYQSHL
# Experimental: B16 melanoma cells were cultured for 3 days in DMEM containing 10% FBS at 37° C. in the presence of 5% carbon dioxide. The cells proliferated after culture were recovered by treatment with trypsin, then suspended in PBS containing 0.1% Triton X100 at a density of ten million cells/ml and disrupted by sonication. The product obtained was centrifuged at 11,000 G for 20 minutes, and the resulting supernatant was used as a crude enzyme solution. Added thereto was 0.2 ml of crude enzyme solution. The mixture was preliminarily kept at 37° C. for 5 minutes, and 0.2 ml L-DOPA solution (0.5 mg/ml) was added as the substrate, and the mixture was kept at 37° C. for 3 hours.
# [5] = system: mushroom-derived tyrosinase; assay: Mushroom tyrosinase inhibition test; type: biochemical; conditions: L-tyrosine substrate, 37° C. 30 minutes
# Experimental: After reaction, the absorbance (OD) at a wavelength of 490 nm was measured and the degree of inhibition of tyrosinase reaction was determined according to the following equation. […] Sample: The buffer, the enzyme solution, the substrate solution and the sample solution Sample-free: The buffer, the enzyme solution and the substrate solution Blank: The buffer and the enzyme solution
# [6] = system: Corynebacterium minutissimum ATCC 23348; assay: Anti-bacterial activity test, agar medium dilution method; type: cell-based; conditions: Cm-1
# Experimental: (§1) The aerobic microorganisms were examined in an agar medium dilution method and the anaerobic microorganisms were examined in a liquid medium dilution method under anaerobic culture conditions. Muller Hinton agar medium (DIFCO) was heated and dissolved and 10 ml of the medium was introduced into each test tube, sterilized and used. The sample was prepared by dissolving in ethanol and the resulting ethanol solution was diluted 2-fold serially with ethanol, and 100 micro-liters of sample solution were added to 10 ml of each dissolved agar medium, then stirred, introduced into a Petri dish of 9 cm in diameter, and solidified at room temperature. Each test microorganism in a well grown slant was inoculated via one loop of platinum into 10 ml Muller Hinton broth (DIFCO) and cultured with shaking at 27° C. for 24 hours and used as a microbial fluid. This fluid was diluted at 10^8 CFU (Colony forming unit)/ml, and 5 micro-liters of the diluted fluid were inoculated onto the agar and cultured at 37° C. overnight. Inoculation of the microorganism was conducted using microplanter MIT-P for 27 tubes test microorganisms (Sakuma Seisakusho K. K.).
# [7] = system: Staphylococcus epidermidis var. H-6; assay: as above; type: cell-based; conditions: Se-2
# Experimental: as §1
# [8] = system: Corynebacterium xerosis JCM 1324; assay: as above; type: cell-based; conditions: Cx-2
# Experimental: as §1
# [9] = system: Staphylococcus epidermidis JCM 2414; assay: as above; type: cell-based; conditions: Se-1
# Experimental: as §1
# [10] = system: Staphylococcus aureus IFO 12732; assay: as above; type: cell-based; conditions: Sa-3
# Experimental: as §1
# [11] = system: Malassezia furfur IFO 0656; assay: as above; type: cell-based; conditions: Mf-1
# Experimental: as §1
# [12] = system: Bacillus subtilis PCI 219 IFO 3134; assay: as above; type: cell-based; conditions: Bs-1
# Experimental: as §1
# [13] = 0.4 ppm, Table 4, combined use with ellagic acid
# [14] = 0.4 ppm, Table 2, combined use with arbutin
smiles,measurement,setting,value
"O=c1oc2c(O)c(O)cc3c(=O)oc4c(O)c(O)cc1c4c23 [Ellagic acid, reference compound]",Degree of cell proliferation,B16 melanoma cells [1]; 3.1 ppm,98%
same,inhibition at 3.1 ppm,"B16 melanoma cells [1]; Mus musculus, 72 h, 3.1 ppm, 3 days, read-out: Degree of melanin inhibition",68%
same,Degree of cell proliferation,"B16 melanoma cells [2]; 1.6 ppm, Table 4, combined use with ellagic acid",98%
same,inhibition at 1.6 ppm,"B16 melanoma cells [2]; Mus musculus, B16, 1.6 ppm, Table 4, combined use with ellagic acid, read-out: Degree of melanin inhibition",17%
"O=C(O)CO [Glycolic acid, reference compound]",Degree of cell proliferation of fibroblasts,[3]; 4.0 ppm,120%
"OC[C@H]1O[C@@H](Oc2ccc(O)cc2)[C@H](O)[C@@H](O)[C@@H]1O [Arbutin, reference compound]",inhibition at 100 ppm,"[4]; 100 ppm, read-out: Degree of inhibition of tyrosinase in B16 melanoma cells",35%
same,Degree of cell proliferation,B16 melanoma cells [1]; 6.3 ppm,100%
same,inhibition at 6.3 ppm,"B16 melanoma cells [1]; Mus musculus, 72 h, 6.3 ppm, 3 days, read-out: Degree of melanin inhibition",74%
same,Degree of cell proliferation,"B16 melanoma cells [2]; 0.8 ppm, Table 2, combined use with arbutin",89%
same,inhibition at 0.8 ppm,"B16 melanoma cells [2]; Mus musculus, B16, 0.8 ppm, Table 2, combined use with arbutin, read-out: Degree of melanin inhibition",22%
same,Degree of inhibition of mushroom tyrosinase,[5]; 100 ppm,29%
"C=C1CCC2C(C)(C)CCCC2(C)C1CCC(C)CC(=O)OCC (centres unmarked) [Compound 9, labd-8(17)-en-15-oic acid ethyl ester]",Degree of cell proliferation of fibroblasts,[3]; 8.0 ppm,127%
same,Degree of melanin inhibition,"B16 melanoma cells [1]; 6.3 ppm, 3 days",61%
same,Degree of cell proliferation,B16 melanoma cells [1]; 6.3 ppm,103%
"C=C1CCC2C(C)(C)CCCC2(C)C1CCC(C)CC(=O)O (centres unmarked) [Compound 7, labd-8(17)-en-15-oic acid]",Degree of cell proliferation of fibroblasts,[3]; 8.0 ppm,128%
same,Degree of inhibition of tyrosinase in B16 melanoma cells,[4],0%
same,Degree of melanin inhibition,"B16 melanoma cells [1]; 6.3 ppm, 3 days",79%
same,Degree of cell proliferation,B16 melanoma cells [1]; 6.3 ppm,111%
same,MIC,[6],12.5 ppm
same,MIC,[7],6.3 ppm
same,MIC,[8],12.5 ppm
same,MIC,[9],6.3 ppm
same,MIC,[10],12.5 ppm
same,MIC,[11],6.3 ppm
same,MIC,[12],12.5 ppm
same,Degree of cell proliferation,B16 melanoma cells [2]; [13],111%
same,Degree of melanin inhibition,B16 melanoma cells [2]; [13],30%
same,Degree of inhibition of mushroom tyrosinase,[5]; 25 ppm,0%
"CC1=CCC2C(C)(C)CCCC2(C)C1CCC(C)CC(=O)O (centres unmarked) [Compound 4, labd-7-en-15-oic acid]",Degree of inhibition of tyrosinase in B16 melanoma cells,[4],0%
same,Degree of melanin inhibition,"B16 melanoma cells [1]; 6.3 ppm, 3 days",87%
same,Degree of cell proliferation,B16 melanoma cells [1]; 6.3 ppm,109%
same,MIC,[6],6.3 ppm
same,MIC,[7],12.5 ppm
same,MIC,[8],12.5 ppm
same,MIC,[9],12.5 ppm
same,MIC,[10],12.5 ppm
same,MIC,[11],6.3 ppm
same,MIC,[12],12.5 ppm
same,Degree of cell proliferation,B16 melanoma cells [2]; [14],115%
same,Degree of melanin inhibition,B16 melanoma cells [2]; [14],28%
same,Degree of inhibition of mushroom tyrosinase,[5]; 25 ppm,0%
"CCOC(=O)CC(C)CCC1C(C)=CCC2C(C)(C)CCCC12C (centres unmarked) [Compound 6, labd-7-en-15-oic acid ethyl ester]",Degree of cell proliferation of fibroblasts,[3]; 8.0 ppm,134%
same,Degree of melanin inhibition,"B16 melanoma cells [1]; 6.3 ppm, 3 days",74%
same,Degree of cell proliferation,B16 melanoma cells [1]; 6.3 ppm,109%
"CCOC(=O)CC(C)CCC1=C(C)CCC2C(C)(C)CCCC12C (centres unmarked) [Compound 3, labd-8-en-15-oic acid ethyl ester]",Degree of cell proliferation of fibroblasts,[3]; 8.0 ppm,134%
same,Degree of melanin inhibition,"B16 melanoma cells [1]; 6.3 ppm, 3 days",74%
same,Degree of cell proliferation,B16 melanoma cells [1]; 6.3 ppm,115%

# From patent publication US6384074B1, “Cell growth activating composition containing compound having labdane structure” (Takasago International Corporation, priority 1998, dated 2002)
